pIC50: −log10 of the molar value. Activity calls are given as the source filed them. The rule behind the calls is not given here.
Legend:
HCT-116 [1] = test: Antiproliferative activity against MTAP deleted human HCT-116 cells assessed as inhibition of cell viability by luminescence based cell titer-glo assay; format: functional
HCT-116 [2] = test: Antiproliferative activity against MTAP wild type human HCT-116 cells assessed as inhibition of cell viability by luminescence based cell titer-glo assay; format: functional
[3] = Cmax in male CD-1 mouse at 5 mg/kg, po or 1 mg/kg, iv measured upto 24 hrs; format: ADME, organism-based; conditions: in vivo
[4] = AUC (0 to 24 hrs) in male CD-1 mouse at 5 mg/kg, po or 1 mg/kg, iv measured upto 24 hrs; format: ADME, organism-based; conditions: in vivo
[5] = Oral bioavailability in male CD-1 mouse at 5 mg/kg or 1 mg/kg, iv measured upto 24 hrs; format: ADME, organism-based; conditions: in vivo
[6] = Volume of distribution at steady state in male Sprague-Dawley rat at 5 mg/kg, po or 1 mg/kg, iv measured upto 24 hrs; format: ADME, organism-based; conditions: in vivo
[7] = Cmax in male Sprague-Dawley rat at 5 mg/kg, po or 1 mg/kg, iv measured upto 24 hrs; format: ADME, organism-based; conditions: in vivo
[8] = AUC (0 to 24 hrs) in male Sprague-Dawley rat at 5 mg/kg, po or 1 mg/kg, iv measured upto 24 hrs; format: ADME, organism-based; conditions: in vivo
[9] = Oral bioavailability in male Sprague-Dawley rat at 5 mg/kg or 1 mg/kg, iv measured upto 24 hrs; format: ADME, organism-based; conditions: in vivo
[10] = Volume of distribution at steady state in male Beagle dog at 3 mg/kg, po or 1 mg/kg, iv measured upto 24 hrs; format: ADME, organism-based, Canis lupus familiaris; conditions: in vivo
[11] = Cmax in male Beagle dog at 3 mg/kg, po or 1 mg/kg, iv measured upto 24 hrs; format: ADME, organism-based, Canis lupus familiaris; conditions: in vivo
[12] = AUC (0 to 24 hrs) in male Beagle dog at 3 mg/kg, po or 1 mg/kg, iv measured upto 24 hrs; format: ADME, organism-based, Canis lupus familiaris; conditions: in vivo
[13] = Oral bioavailability in male Beagle dog at 3 mg/kg or 1 mg/kg, iv measured upto 24 hrs; format: ADME, organism-based, Canis lupus familiaris; conditions: in vivo
[14] = target: T1, Protein arginine N-methyltransferase 5 (Homo sapiens, UniProt O14744); test: Inhibition of PRMT5 (unknown origin) in presence of MTA
T1 sequence (O14744 whole entry): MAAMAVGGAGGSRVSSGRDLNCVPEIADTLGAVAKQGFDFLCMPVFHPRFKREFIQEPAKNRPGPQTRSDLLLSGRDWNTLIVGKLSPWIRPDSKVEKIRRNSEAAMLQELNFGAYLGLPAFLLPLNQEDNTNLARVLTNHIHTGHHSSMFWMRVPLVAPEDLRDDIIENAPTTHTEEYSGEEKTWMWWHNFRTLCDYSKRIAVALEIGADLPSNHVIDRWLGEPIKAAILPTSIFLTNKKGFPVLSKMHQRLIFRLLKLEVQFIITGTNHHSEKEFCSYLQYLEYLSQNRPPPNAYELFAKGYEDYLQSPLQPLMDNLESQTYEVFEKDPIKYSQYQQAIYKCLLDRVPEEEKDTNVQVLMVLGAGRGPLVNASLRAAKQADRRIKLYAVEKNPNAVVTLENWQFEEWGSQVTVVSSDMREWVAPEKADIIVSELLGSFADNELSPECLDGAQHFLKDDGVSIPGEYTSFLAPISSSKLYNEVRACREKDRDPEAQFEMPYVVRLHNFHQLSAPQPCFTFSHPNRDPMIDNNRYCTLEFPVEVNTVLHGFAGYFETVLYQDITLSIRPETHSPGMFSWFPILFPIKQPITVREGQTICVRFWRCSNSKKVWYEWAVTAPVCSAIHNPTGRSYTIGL

[15] = target: T1, Protein arginine N-methyltransferase 5; test: Inhibition of PRMT5 (unknown origin)
Lu-99 cell line [16] = test: Antiproliferative activity against MTAP null human Lu-99 cell line assessed as inhibition of cell viability measured after 10 days by luminescence based cell titer-glo assay; format: functional; conditions: Lu-99, 240 h
DOHH-2 = test: Antiproliferative activity against MTAP null human DOHH-2 cells assessed as inhibition of cell viability measured after 10 days by luminescence based cell titer-glo assay; format: functional; conditions: DOHH-2, 240 h
[17] = Antiproliferative activity against MTAP null human HCC15 cells assessed as inhibition of cell viability measured after 10 days by luminescence based cell titer-glo assay; format: functional; conditions: HCC15, 240 h
[18] = Antiproliferative activity against MTAP null human NCI-H647 cells assessed as inhibition of cell viability measured after 10 days by luminescence based cell titer-glo assay; format: functional; conditions: NCI-H647, 240 h
[19] = Antiproliferative activity against MTAP wild type human KURAMOCHI cells assessed as inhibition of cell viability measured after 10 days by luminescence based cell titer-glo assay; format: functional; conditions: 240 h
BT-20 = test: Antiproliferative activity against MTAP wild type human BT-20 cells assessed as inhibition of cell viability measured after 10 days by luminescence based cell titer-glo assay; format: functional; conditions: BT-20, 240 h
MDA-MB-436 = test: Antiproliferative activity against MTAP wild type human MDA-MB-436 cells assessed as inhibition of cell viability measured after 10 days by luminescence based cell titer-glo assay; format: functional; conditions: MDA-MB-436, 240 h
HCC95 = test: Antiproliferative activity against MTAP wild type human HCC95 cells assessed as inhibition of cell viability measured after 10 days by luminescence based cell titer-glo assay; format: functional; conditions: HCC95, 240 h
[20] = target: T1, Protein arginine N-methyltransferase 5; test: Inhibition of PRMT5 in MTAP deleted human Lu-99 cell line assessed as reduction in SDMA level at upto 1000 nM measured after 5 days by Western blot analysis; format: cell-based; conditions: time 5.0 day
[21] = target: T1, Protein arginine N-methyltransferase 5; test: Inhibition of PRMT5 in MTAP deleted human Lu-99 cell line assessed as decrease pRb (Ser807/811) level at upto 1000 nM measured after 5 days by Western blot analysis; format: cell-based; conditions: time 5.0 day
[22] = target: T1, Protein arginine N-methyltransferase 5; test: Inhibition of PRMT5 in MTAP deleted human Lu-99 cell line assessed as increase in p21 level at upto 1000 nM measured after 5 days by Western blot analysis; format: cell-based; conditions: time 5.0 day
[23] = target: T1, Protein arginine N-methyltransferase 5; test: Inhibition of PRMT5 in MTAP deleted human Lu-99 cell line assessed as increase in gammaH2AX level at upto 1000 nM measured after 5 days by Western blot analysis; format: cell-based; conditions: time 5.0 day
Lu-99 cell line [24] = test: Antitumor activity against human Lu-99 cell line xenografted in female BALB/c nude mouse model assessed as tumor growth inhibition administered once daily via oral gavage and measured upto 21 days by caliper method; format: functional; conditions: dose 25-200 mg/kg, time <= 21.0 day
Lu-99 cell line [25] = test: Antitumor activity against human Lu-99 cell line xenografted in female BALB/c nude mouse model assessed as tumor growth inhibition at 25 mg/kg administered once daily via oral gavage and measured upto 21 days by caliper method relative to control; format: functional; set-up: scale not given: the % may be the effect or the level left; conditions: time <= 21 day
Lu-99 cell line [26] = test: Antitumor activity against human Lu-99 cell line xenografted in female BALB/c nude mouse model assessed as tumor growth inhibition at 50 mg/kg administered once daily via oral gavage and measured upto 21 days by caliper method relative to control; format: functional; set-up: scale not given: the % may be the effect or the level left; conditions: time <= 21 day
Lu-99 cell line [27] = test: Antitumor activity against human Lu-99 cell line xenografted in female BALB/c nude mouse model assessed as tumor growth inhibition at 100 mg/kg administered once daily via oral gavage and measured upto 21 days by caliper method relative to control; format: functional; set-up: scale not given: the % may be the effect or the level left; conditions: time <= 21 day
Lu-99 cell line [28] = test: Antitumor activity against human Lu-99 cell line xenografted in female BALB/c nude mouse model assessed as tumor growth inhibition at 200 mg/kg administered once daily via oral gavage and measured upto 21 days by caliper method relative to control; format: functional; set-up: scale not given: the % may be the effect or the level left; conditions: time <= 21 day
[29] = target: T1, Protein arginine N-methyltransferase 5; test: In vivo inhibition of PRMT5 in female BALB/c nude mouse xenografted with human Lu-99 cell line assessed as inhibition of SDMA level administered once daily via oral gavage by Western blot analysis; format: functional, organism-based; conditions: dose 25-200 mg/kg
[30] = target: T1, Protein arginine N-methyltransferase 5; test: In vivo inhibition of PRMT5 in female BALB/c nude mouse xenografted with human Lu-99 cell line assessed as inhibition of SDMA level at 25 mg/kg administered once daily via oral gavage by Western blot analysis relative to control; format: functional, organism-based; set-up: scale not given: the % may be the effect or the level left
[31] = target: T1, Protein arginine N-methyltransferase 5; test: In vivo inhibition of PRMT5 in female BALB/c nude mouse xenografted with human Lu-99 cell line assessed as inhibition of SDMA level at 50 mg/kg administered once daily via oral gavage by Western blot analysis relative to control; format: functional, organism-based; set-up: scale not given: the % may be the effect or the level left
[32] = target: T1, Protein arginine N-methyltransferase 5; test: In vivo inhibition of PRMT5 in female BALB/c nude mouse xenografted with human Lu-99 cell line assessed as inhibition of SDMA level at 100 mg/kg administered once daily via oral gavage by Western blot analysis relative to control; format: functional, organism-based; set-up: scale not given: the % may be the effect or the level left
[33] = target: T1, Protein arginine N-methyltransferase 5; test: In vivo inhibition of PRMT5 in female BALB/c nude mouse xenografted with human Lu-99 cell line assessed as inhibition of SDMA level at 200 mg/kg administered once daily via oral gavage by Western blot analysis relative to control; format: functional, organism-based; set-up: scale not given: the % may be the effect or the level left
[34] = Toxicity in female BALB/c nude mouse assessed as drug tolerance at 25 to 200 mg/kg, po administered once daily for 21 days; format: organism-based; conditions: in vivo, 504 h, dose 25-200 mg/kg, time 21 day
[35] = Toxicity in female BALB/c nude mouse assessed as effect on body weight loss at 25 to 200 mg/kg, po administered once daily for 21 days; format: organism-based; conditions: in vivo, 504 h, dose 25-200 mg/kg, time 21 day
[36] = Selectivity ratio of IC50 for antiproliferative activity against MTAP wild type human HCT-116 cells to IC50 for antiproliferative activity against MTAP deleted human HCT-116 cells; format: functional

SMILES: CN(C(=O)c1ccc2nc(N)c3c(c2c1)COC3)[C@@H]1CCN(c2ccccc2)C1
- pIC50 (HCT-116 [1]): 5.99

SMILES: CN(C(=O)c1ccc2nc(N)c3c(c2c1)COC3)[C@@H]1CCN(c2ccc3cnn(C)c3c2)C1
- pIC50 (HCT-116 [1]): 6.50
- pIC50 (HCT-116 [2]): 6.20

SMILES: Nc1nc2ccc(C(=O)N3C[C@H]4C[C@@H]3CN4c3ccccc3)cc2c2c1COC2
- pIC50 (HCT-116 [1]): 5.61

SMILES: N#Cc1cccc(N2C[C@@H]3C[C@H]2CN3C(=O)c2ccc3nc(N)c4c(c3c2)COC4)c1
- pIC50 (HCT-116 [1]): 5.43

SMILES: CN(C(=O)c1ccc2nc(N)c3c(c2c1)COC3)[C@H]1CCN(c2ccccc2)C1
- pIC50 (HCT-116 [1]): 5.70

SMILES: CN(C(=O)c1ccc2nc(N)c3c(c2c1)COC3)C1CCN(c2ccccc2)CC1
- pIC50 (HCT-116 [1]): 5.41

SMILES: CN(C(=O)c1cc2c3c(c(N)nc2cc1F)COC3)[C@@H]1CCN(c2ccc(C#N)cc2)C1
- pIC50 (HCT-116 [1]): 7.82
- pIC50 (HCT-116 [2]): 5.72
- Cmax [3]: 1720 ng/mL
- AUC [4]: 6900 ng·h/mL
- bioavailability [5]: 105%
- Vdss [6]: 1.52 L/kg
- Cmax [7]: 1020 ng/mL
- AUC [8]: 5610 ng·h/mL
- bioavailability [9]: 81%
- Vdss [10]: 1.87 L/kg
- Cmax [11]: 804 ng/mL
- AUC [12]: 6140 ng·h/mL
- bioavailability [13]: 82.5%
- pIC50 [14]: 8.33
- pIC50 [15]: 7.17
- pIC50 (Lu-99 cell line [16]): 7.66
- pIC50 (DOHH-2): 7.68
- pIC50 [17]: 8.18
- pIC50 [18]: 6.93
- pIC50 [19]: 5.53
- pIC50 (BT-20): < 5.00
- pIC50 (MDA-MB-436): 5.31
- pIC50 (HCC95): 5.56
- inhibition [20]: Active
- inhibition [21]: Active
- inhibition [22]: Active
- inhibition [23]: Active
- Activity (Lu-99 cell line [24]): Dose-dependent-effect
- Activity (Lu-99 cell line [25]): 71%
- Activity (Lu-99 cell line [26]): 76%
- Activity (Lu-99 cell line [27]): 94%
- Activity (Lu-99 cell line [28]): 102%
- Activity [29]: Dose-dependent-effect
- Activity [30]: 43%
- Activity [31]: 49%
- Activity [32]: 68%
- Activity [33]: 85%
- Activity [34]: Non-toxic
- Activity [35]: Non-toxic

SMILES: Nc1nc2cnc(C(=O)N3CCOC[C@@H]3c3ccc(C(F)(F)F)cc3)cc2c2c1COC2
- Ratio IC50 [36]: 66

SMILES: CN(C(=O)c1ccc2nc(N)c3c(c2c1)COC3)[C@@H]1CCN(c2ccc(-c3cnn(C)c3)cc2)C1
- pIC50 (HCT-116 [1]): 6.68
- pIC50 (HCT-116 [2]): < 5.00

SMILES: N#Cc1ccc(N2C[C@@H]3C[C@H]2CN3C(=O)c2ccc3nc(N)c4c(c3c2)COC4)cc1
- pIC50 (HCT-116 [1]): 5.50

SMILES: CN(C(=O)c1ccc2nc(N)c3c(c2c1)COC3)[C@@H]1CCN(c2ccc(S(C)(=O)=O)cc2)C1
- pIC50 (HCT-116 [1]): 6.19
- pIC50 (HCT-116 [2]): < 5.00

SMILES: CN(C(=O)c1cc2c3c(c(N)nc2cn1)COC3)[C@@H]1CCN(c2ccc(C#N)cc2)C1
- pIC50 (HCT-116 [1]): 6.86
- pIC50 (HCT-116 [2]): 5.03

SMILES: CN(C(=O)c1ccc2nc(N)c3c(c2c1)COC3)[C@@H]1CCN(c2ccc(C#N)cc2)C1
- pIC50 (HCT-116 [1]): 7.02
- pIC50 (HCT-116 [2]): 5.11
- Ratio IC50 [36]: 82
